Laboratory results published in PubChem BioAssay (NCI).
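Exposure lasted 48 hours, with cells grown in 96-well plates and compounds tested at five concentrations. At the TGI there is no net growth.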

What was measured:
Assay in all cases: NCI tumour cell line growth inhibition, 48 h
M14 melanoma = tested on: M14 melanoma
RPMI-8226 leukemia = tested on: RPMI-8226 leukemia
SNB-19 CNS = tested on: SNB-19 CNS
HCC-2998 colon = tested on: HCC-2998 colon
UACC-62 melanoma = tested on: UACC-62 melanoma
HCT-15 colon = tested on: HCT-15 colon
SF-539 CNS = tested on: SF-539 CNS
BT-549 breast = tested on: BT-549 breast
HOP-62 NSCLC = tested on: HOP-62 NSCLC
A498 renal = tested on: A498 renal
HT29 colon = tested on: HT29 colon
DU-145 prostate = tested on: DU-145 prostate
UO-31 renal = tested on: UO-31 renal
CCRF-CEM leukemia = tested on: CCRF-CEM leukemia
SR leukemia = tested on: SR leukemia
NCI-H522 lung = tested on: NCI-H522 lung
OVCAR-3 ovarian = tested on: OVCAR-3 ovarian
NCI-H23 lung = tested on: NCI-H23 lung
MCF7 breast = tested on: MCF7 breast
COLO 205 colon = tested on: COLO 205 colon
MDA-MB-435 = tested on: MDA-MB-435
KM12 colon = tested on: KM12 colon
OVCAR-4 ovarian = tested on: OVCAR-4 ovarian
MOLT-4 leukemia = tested on: MOLT-4 leukemia
SW-620 colon = tested on: SW-620 colon
SF-295 CNS = tested on: SF-295 CNS
HS 578T breast = tested on: HS 578T breast
MALME-3M melanoma = tested on: MALME-3M melanoma
U251 CNS = tested on: U251 CNS
K-562 leukemia = tested on: K-562 leukemia
SK-MEL-28 melanoma = tested on: SK-MEL-28 melanoma
OVCAR-5 ovarian = tested on: OVCAR-5 ovarian
786-0 renal = tested on: 786-0 renal
SK-MEL-2 melanoma = tested on: SK-MEL-2 melanoma
HCT-116 colon = tested on: HCT-116 colon
A549 NSCLC = tested on: A549 NSCLC
OVCAR-8 ovarian = tested on: OVCAR-8 ovarian
IGROV1 ovarian = tested on: IGROV1 ovarian
EKVX NSCLC = tested on: EKVX NSCLC
NCI-H460 lung = tested on: NCI-H460 lung
HL-60(TB) leukemia = tested on: HL-60(TB) leukemia
UACC-257 melanoma = tested on: UACC-257 melanoma
ACHN renal = tested on: ACHN renal
LOX IMVI melanoma = tested on: LOX IMVI melanoma
SF-268 CNS = tested on: SF-268 CNS
SK-MEL-5 melanoma = tested on: SK-MEL-5 melanoma
CAKI-1 renal = tested on: CAKI-1 renal
NCI/ADR-RES ovarian = tested on: NCI/ADR-RES ovarian
SK-OV-3 ovarian = tested on: SK-OV-3 ovarian
PC-3 prostate = tested on: PC-3 prostate
NCI-H226 lung = tested on: NCI-H226 lung
RXF 393 renal = tested on: RXF 393 renal
SNB-75 CNS = tested on: SNB-75 CNS
SN12C renal = tested on: SN12C renal
MDA-MB-231 breast = tested on: MDA-MB-231 breast
TK-10 renal = tested on: TK-10 renal

CCN(CC)c1ccc2cc(C(=O)Nc3ccccc3OC)c(=N)oc2c1
TGI (M14 melanoma): > 100 µM | TGI (RPMI-8226 leukemia): 88.7 µM | TGI (SNB-19 CNS): > 100 µM | TGI (HCC-2998 colon): > 100 µM | TGI (UACC-62 melanoma): > 100 µM | TGI (HCT-15 colon): 88.3 µM | TGI (SF-539 CNS): > 100 µM | TGI (BT-549 breast): 74.5 µM | TGI (HOP-62 NSCLC): > 100 µM | TGI (A498 renal): > 100 µM | TGI (HT29 colon): > 100 µM | TGI (DU-145 prostate): > 100 µM | TGI (UO-31 renal): 1.58 µM | TGI (CCRF-CEM leukemia): 20.8 µM | TGI (SR leukemia): > 100 µM | TGI (NCI-H522 lung): 65.6 µM | TGI (OVCAR-3 ovarian): > 100 µM | TGI (NCI-H23 lung): 89.8 µM | TGI (MCF7 breast): > 100 µM | TGI (COLO 205 colon): > 100 µM | TGI (MDA-MB-435): > 100 µM | TGI (KM12 colon): > 100 µM | TGI (OVCAR-4 ovarian): > 100 µM | TGI (MOLT-4 leukemia): 17.2 µM | TGI (SW-620 colon): > 100 µM | TGI (SF-295 CNS): > 100 µM | TGI (HS 578T breast): 98.4 µM | TGI (MALME-3M melanoma): > 100 µM | TGI (U251 CNS): > 100 µM | TGI (K-562 leukemia): > 100 µM | TGI (SK-MEL-28 melanoma): > 100 µM | TGI (OVCAR-5 ovarian): > 100 µM | TGI (786-0 renal): > 100 µM | TGI (SK-MEL-2 melanoma): > 100 µM | TGI (HCT-116 colon): > 100 µM | TGI (A549 NSCLC): > 100 µM | TGI (OVCAR-8 ovarian): 23 µM | TGI (IGROV1 ovarian): 35.3 µM | TGI (EKVX NSCLC): > 100 µM | TGI (NCI-H460 lung): > 100 µM | TGI (HL-60(TB) leukemia): 31.6 µM | TGI (UACC-257 melanoma): > 100 µM | TGI (ACHN renal): > 100 µM | TGI (LOX IMVI melanoma): 58.2 µM | TGI (SF-268 CNS): > 100 µM | TGI (SK-MEL-5 melanoma): > 100 µM | TGI (CAKI-1 renal): 72.1 µM | TGI (NCI/ADR-RES ovarian): 90.8 µM | TGI (SK-OV-3 ovarian): > 100 µM | TGI (PC-3 prostate): 59.6 µM

CC1(C)N([O-])[N+](=O)C1(C)Br (stereo unspecified)
TGI (M14 melanoma): > 100 µM | TGI (SNB-19 CNS): > 100 µM | TGI (HCC-2998 colon): > 100 µM | TGI (UACC-62 melanoma): > 100 µM | TGI (HCT-15 colon): > 100 µM | TGI (SF-539 CNS): > 100 µM | TGI (BT-549 breast): > 100 µM | TGI (NCI-H226 lung): > 100 µM | TGI (HOP-62 NSCLC): > 100 µM | TGI (HT29 colon): > 100 µM | TGI (RXF 393 renal): > 100 µM | TGI (UO-31 renal): > 100 µM | TGI (CCRF-CEM leukemia): > 100 µM | TGI (SR leukemia): > 100 µM | TGI (NCI-H522 lung): > 100 µM | TGI (OVCAR-3 ovarian): > 100 µM | TGI (NCI-H23 lung): > 100 µM | TGI (MCF7 breast): > 100 µM | TGI (COLO 205 colon): > 100 µM | TGI (MDA-MB-435): > 100 µM | TGI (KM12 colon): > 100 µM | TGI (OVCAR-4 ovarian): > 100 µM | TGI (MOLT-4 leukemia): > 100 µM | TGI (SNB-75 CNS): > 100 µM | TGI (SW-620 colon): > 100 µM | TGI (SF-295 CNS): > 100 µM | TGI (HS 578T breast): > 100 µM | TGI (SN12C renal): > 100 µM | TGI (MDA-MB-231 breast): > 100 µM | TGI (TK-10 renal): > 100 µM | TGI (U251 CNS): > 100 µM | TGI (K-562 leukemia): > 100 µM | TGI (SK-MEL-28 melanoma): > 100 µM | TGI (OVCAR-5 ovarian): > 100 µM | TGI (786-0 renal): > 100 µM | TGI (SK-MEL-2 melanoma): > 100 µM | TGI (HCT-116 colon): > 100 µM | TGI (A549 NSCLC): > 100 µM | TGI (OVCAR-8 ovarian): > 100 µM | TGI (IGROV1 ovarian): > 100 µM | TGI (EKVX NSCLC): > 100 µM | TGI (NCI-H460 lung): > 100 µM | TGI (UACC-257 melanoma): > 100 µM | TGI (ACHN renal): > 100 µM | TGI (LOX IMVI melanoma): > 100 µM | TGI (SF-268 CNS): > 100 µM | TGI (SK-MEL-5 melanoma): > 100 µM | TGI (CAKI-1 renal): > 100 µM | TGI (NCI/ADR-RES ovarian): > 100 µM | TGI (SK-OV-3 ovarian): > 100 µM | TGI (PC-3 prostate): > 100 µM
